The target in test [1] is Tyrosine-protein kinase Lck (Homo sapiens) (UniProt P06239). Briefly: Inhibition of LCK (unknown origin) at 0.078 uM relative to control.
Test [2] has as its target Mitogen-activated protein kinase kinase kinase 7 (Homo sapiens) (UniProt O43318). Kind of test: Inhibition of c-TAK1 (unknown origin) at 0.078 uM relative to control.
For test [3], the target named is Tyrosine-protein kinase Fyn (Homo sapiens) (UniProt P06241). Kind of test: Inhibition of FYN (unknown origin) at 0.078 uM relative to control.
Test [4] addresses Proto-oncogene tyrosine-protein kinase Src (Homo sapiens) (UniProt P12931). Kind of test: Inhibition of SRC (unknown origin) at 0.49 uM relative to control.
Test [5] concerns the target Tyrosine-protein kinase Fer (Homo sapiens) (UniProt P16591). Kind of test: Inhibition of Fer (unknown origin) at 0.49 uM relative to control.
The target of test [6] is Tyrosine-protein kinase Lyn (Homo sapiens) (UniProt P07948). Briefly: Inhibition of LYNB (unknown origin) at 0.49 uM relative to control.
Tyrosine-protein kinase Lyn (Homo sapiens), sequence (P07948 2-512 limits assumed): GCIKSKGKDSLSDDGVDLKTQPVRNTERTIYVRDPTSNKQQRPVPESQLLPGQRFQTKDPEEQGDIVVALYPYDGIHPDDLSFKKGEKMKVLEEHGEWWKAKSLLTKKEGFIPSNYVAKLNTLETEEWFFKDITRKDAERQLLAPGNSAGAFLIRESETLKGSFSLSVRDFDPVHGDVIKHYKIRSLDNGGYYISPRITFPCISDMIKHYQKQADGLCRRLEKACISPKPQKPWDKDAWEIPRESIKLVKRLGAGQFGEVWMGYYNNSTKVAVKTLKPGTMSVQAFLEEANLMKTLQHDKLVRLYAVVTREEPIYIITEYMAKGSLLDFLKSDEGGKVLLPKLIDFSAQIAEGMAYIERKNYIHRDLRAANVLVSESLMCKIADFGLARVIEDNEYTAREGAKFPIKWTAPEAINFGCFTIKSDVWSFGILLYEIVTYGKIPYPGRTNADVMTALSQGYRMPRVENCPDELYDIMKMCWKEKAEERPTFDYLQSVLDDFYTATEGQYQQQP
Test [7] addresses Homeodomain-interacting protein kinase 3 (Homo sapiens) (UniProt Q9H422). Kind of test: Inhibition of HIPK3 (unknown origin) at 0.49 uM relative to control.
For test [8], the target named is Tyrosine-protein kinase FRK (Homo sapiens) (UniProt P42685). Kind of test: Inhibition of FRK (unknown origin) at 0.49 uM relative to control.
Test [9] relates to Tyrosine-protein kinase ABL1 (Homo sapiens), P00519 [Y253F]. Kind of test: Inhibition of ABL1 Y253F mutant (unknown origin) at 0.49 uM relative to control.
The target of test [10] is Serine/threonine-protein kinase 4 (Homo sapiens) (UniProt Q13043). Briefly: Inhibition of MST1 (unknown origin) at 0.49 uM relative to control.
For test [11], the target named is Proto-oncogene tyrosine-protein kinase ROS (Homo sapiens) (UniProt P08922). Briefly: Inhibition of ROS (unknown origin) at 0.49 uM relative to control.
The target of test [12] is Ephrin type-B receptor 3 (Homo sapiens) (UniProt P54753). Kind of test: Inhibition of EPHB3 (unknown origin) at 0.49 uM relative to control.
Ephrin type-B receptor 3 (Homo sapiens), sequence (P54753 whole entry): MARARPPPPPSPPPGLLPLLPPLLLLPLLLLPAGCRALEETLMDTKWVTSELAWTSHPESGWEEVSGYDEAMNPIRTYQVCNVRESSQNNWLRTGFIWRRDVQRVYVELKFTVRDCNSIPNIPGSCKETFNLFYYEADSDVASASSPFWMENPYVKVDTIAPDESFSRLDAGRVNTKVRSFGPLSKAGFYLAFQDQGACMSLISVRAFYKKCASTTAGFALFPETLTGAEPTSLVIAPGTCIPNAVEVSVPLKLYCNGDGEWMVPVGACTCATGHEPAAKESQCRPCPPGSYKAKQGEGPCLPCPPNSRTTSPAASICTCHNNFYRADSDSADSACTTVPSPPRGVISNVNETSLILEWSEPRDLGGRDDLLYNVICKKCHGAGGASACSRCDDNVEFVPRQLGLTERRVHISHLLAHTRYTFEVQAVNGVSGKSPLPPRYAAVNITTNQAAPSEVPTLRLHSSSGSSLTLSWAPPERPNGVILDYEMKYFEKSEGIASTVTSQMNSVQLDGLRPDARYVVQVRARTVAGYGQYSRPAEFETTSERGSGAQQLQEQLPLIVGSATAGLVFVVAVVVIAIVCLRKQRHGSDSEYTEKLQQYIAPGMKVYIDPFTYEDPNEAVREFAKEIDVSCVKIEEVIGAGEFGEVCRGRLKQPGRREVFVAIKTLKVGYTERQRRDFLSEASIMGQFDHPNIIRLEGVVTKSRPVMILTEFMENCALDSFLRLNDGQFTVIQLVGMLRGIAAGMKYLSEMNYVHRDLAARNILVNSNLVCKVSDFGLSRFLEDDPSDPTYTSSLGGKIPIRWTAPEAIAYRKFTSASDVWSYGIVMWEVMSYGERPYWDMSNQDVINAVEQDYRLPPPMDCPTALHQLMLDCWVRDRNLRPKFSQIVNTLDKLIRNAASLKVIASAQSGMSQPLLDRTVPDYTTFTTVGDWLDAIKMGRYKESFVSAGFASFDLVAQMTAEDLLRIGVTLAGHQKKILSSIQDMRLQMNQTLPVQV
For test [13], the target named is Tyrosine-protein kinase receptor TYRO3 (Homo sapiens) (UniProt Q06418). Kind of test: Inhibition of TYRO3 (unknown origin) at 0.49 uM relative to control.
Tyrosine-protein kinase receptor TYRO3 (Homo sapiens), sequence (Q06418 whole entry): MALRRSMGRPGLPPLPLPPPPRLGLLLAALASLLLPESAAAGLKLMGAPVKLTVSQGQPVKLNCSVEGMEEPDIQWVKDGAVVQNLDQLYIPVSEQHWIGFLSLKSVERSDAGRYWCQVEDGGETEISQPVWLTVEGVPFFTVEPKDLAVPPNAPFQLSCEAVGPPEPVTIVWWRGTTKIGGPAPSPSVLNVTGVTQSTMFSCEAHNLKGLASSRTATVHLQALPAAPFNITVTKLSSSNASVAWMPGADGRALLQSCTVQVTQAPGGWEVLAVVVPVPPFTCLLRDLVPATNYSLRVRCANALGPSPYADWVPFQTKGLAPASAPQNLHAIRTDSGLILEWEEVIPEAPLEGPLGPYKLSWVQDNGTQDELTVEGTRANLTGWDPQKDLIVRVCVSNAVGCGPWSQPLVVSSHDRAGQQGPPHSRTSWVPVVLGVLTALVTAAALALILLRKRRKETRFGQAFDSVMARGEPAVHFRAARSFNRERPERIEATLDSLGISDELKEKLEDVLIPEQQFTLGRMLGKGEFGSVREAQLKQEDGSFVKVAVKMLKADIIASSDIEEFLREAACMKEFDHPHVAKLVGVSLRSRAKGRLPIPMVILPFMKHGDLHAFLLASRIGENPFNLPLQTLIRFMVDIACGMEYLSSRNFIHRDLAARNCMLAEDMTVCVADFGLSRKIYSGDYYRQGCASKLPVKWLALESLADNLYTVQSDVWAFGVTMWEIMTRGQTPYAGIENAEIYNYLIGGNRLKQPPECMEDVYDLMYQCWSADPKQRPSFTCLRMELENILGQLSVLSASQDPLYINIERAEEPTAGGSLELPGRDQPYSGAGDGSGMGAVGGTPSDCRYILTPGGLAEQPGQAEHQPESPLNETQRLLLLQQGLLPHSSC
Test [14] has as its target Calcium/calmodulin-dependent protein kinase type 1D (Homo sapiens) (UniProt Q8IU85). Kind of test: Inhibition of CamK1d (unknown origin) at 0.49 uM relative to control.
Test [15] concerns the target MAP kinase-interacting serine/threonine-protein kinase 2 (Homo sapiens) (UniProt Q9HBH9). Kind of test: Inhibition of MNK2 (unknown origin) at 0.49 uM relative to control.
Test [16] has as its target SRSF protein kinase 2 (Homo sapiens) (UniProt P78362). Kind of test: Inhibition of SRPK2 (unknown origin) at 0.49 uM relative to control.
The target of test [17] is Vascular endothelial growth factor receptor 2 (Homo sapiens) (UniProt P35968). Kind of test: Inhibition of KDR (unknown origin) at 0.49 uM relative to control.
In test [18] the test system is Epidermal growth factor receptor (Homo sapiens), P00533 [L858R,T790M]. Kind of test: Inhibition of EGFR T790M/L858R double mutant (unknown origin) at 0.49 uM relative to control.
Test [19] addresses Protein kinase C gamma type (Homo sapiens) (UniProt P05129). Briefly: Inhibition of PKC-gamma (unknown origin) at 0.45 uM relative to control.
Test [20] concerns Tyrosine-protein kinase ABL1 (Homo sapiens), P00519 [Y253F]. Briefly: Inhibition of ABL1 Y253F mutant (unknown origin) at 0.45 uM relative to control.
Test [21] addresses AMP-activated protein kinase, AMPK (Homo sapiens) (UniProt P54646+O43741+P54619+Q9UGJ0+Q9Y478+Q13131+Q9UGI9). Briefly: Inhibition of AMPK (unknown origin) at 0.45 uM relative to control.
In test [22] the target is Maternal embryonic leucine zipper kinase (Homo sapiens) (UniProt Q14680). Briefly: Inhibition of MELK (unknown origin) at 0.45 uM relative to control.
Test [23] addresses Dual specificity tyrosine-phosphorylation-regulated kinase 3 (Homo sapiens) (UniProt O43781). Briefly: Inhibition of DYRK3 (unknown origin) at 0.45 uM relative to control.
Test [24] deals with Rho-associated protein kinase 2 (Homo sapiens) (UniProt O75116). Briefly: Inhibition of ROCK2 (unknown origin) at 0.45 uM relative to control.
In test [25] the target is Casein kinase I isoform epsilon (Homo sapiens) (UniProt P49674). Kind of test: Inhibition of CK1-epsilon (unknown origin) at 0.45 uM relative to control.
In test [26] the target is Tyrosine-protein kinase receptor TYRO3 (Homo sapiens) (UniProt Q06418). Kind of test: Inhibition of TYRO3 (unknown origin) at 0.45 uM relative to control.
In test [27] the target is MAP kinase-interacting serine/threonine-protein kinase 2 (Homo sapiens) (UniProt Q9HBH9). Briefly: Inhibition of MNK2 (unknown origin) at 0.45 uM relative to control.
MAP kinase-interacting serine/threonine-protein kinase 2 (Homo sapiens), sequence (Q9HBH9 whole entry, looked up): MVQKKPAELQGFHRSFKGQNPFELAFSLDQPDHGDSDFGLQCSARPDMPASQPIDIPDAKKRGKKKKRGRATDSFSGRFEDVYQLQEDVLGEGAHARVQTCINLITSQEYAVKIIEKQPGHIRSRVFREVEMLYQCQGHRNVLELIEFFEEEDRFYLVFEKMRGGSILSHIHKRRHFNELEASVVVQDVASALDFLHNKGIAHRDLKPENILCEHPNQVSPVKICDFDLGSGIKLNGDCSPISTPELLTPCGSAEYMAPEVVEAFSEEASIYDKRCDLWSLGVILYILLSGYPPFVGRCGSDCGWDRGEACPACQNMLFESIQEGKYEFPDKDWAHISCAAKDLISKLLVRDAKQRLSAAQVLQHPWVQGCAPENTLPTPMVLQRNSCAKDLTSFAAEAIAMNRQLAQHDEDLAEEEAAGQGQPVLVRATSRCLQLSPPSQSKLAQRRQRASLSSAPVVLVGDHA
Test [28] has as its target RAC-gamma serine/threonine-protein kinase (Homo sapiens) (UniProt Q9Y243). Kind of test: Inhibition of AKT3 (unknown origin) at 0.45 uM relative to control.
Test [29] concerns the target Glycogen synthase kinase-3 beta (Homo sapiens) (UniProt P49841). Kind of test: Inhibition of GSK3b (unknown origin) at 0.45 uM relative to control.
The target of test [30] is Serine/threonine-protein kinase MARK2 (Homo sapiens) (UniProt Q7KZI7). Briefly: Inhibition of MARK2 (unknown origin) at 0.45 uM relative to control.
In test [31] the target is Insulin-like growth factor 1 receptor (Homo sapiens) (UniProt P08069). Briefly: Inhibition of IGF1R (unknown origin) at 0.45 uM relative to control.
For test [32], the target named is Interleukin-1 receptor-associated kinase 1 (Homo sapiens) (UniProt P51617). Kind of test: Inhibition of IRAK1 (unknown origin) at 0.45 uM relative to control.
Test [33] addresses Platelet-derived growth factor receptor alpha (Homo sapiens) (UniProt P16234). Briefly: Inhibition of PDGFR alpha (unknown origin) at 0.45 uM relative to control.
For test [34], the target named is Ephrin type-A receptor 1 (Homo sapiens) (UniProt P21709). Kind of test: Inhibition of EPHA1 (unknown origin) at 0.45 uM relative to control.
Test [35] concerns the target Inhibitor of nuclear factor kappa-B kinase subunit beta (Homo sapiens) (UniProt O14920). Briefly: Inhibition of IKK-beta (unknown origin) at 0.45 uM relative to control.
The target in test [36] is Dual specificity protein kinase CLK2 (Homo sapiens) (UniProt P49760). Kind of test: Inhibition of CLK2 (unknown origin) at 0.45 uM relative to control.
For test [37], the target named is Tyrosine-protein kinase ABL1 (Homo sapiens) (UniProt P00519). Briefly: Inhibition of ABL (unknown origin) at 0.45 uM relative to control.
In test [38] the target is Homeodomain-interacting protein kinase 2 (Homo sapiens) (UniProt Q9H2X6). Briefly: Inhibition of HIPK2 (unknown origin) at 0.45 uM relative to control.
The target in test [39] is Aurora kinase B (Homo sapiens) (UniProt Q96GD4). Kind of test: Inhibition of AurB (unknown origin) at 0.45 uM relative to control.
Aurora kinase B (Homo sapiens), sequence (Q96GD4 whole entry): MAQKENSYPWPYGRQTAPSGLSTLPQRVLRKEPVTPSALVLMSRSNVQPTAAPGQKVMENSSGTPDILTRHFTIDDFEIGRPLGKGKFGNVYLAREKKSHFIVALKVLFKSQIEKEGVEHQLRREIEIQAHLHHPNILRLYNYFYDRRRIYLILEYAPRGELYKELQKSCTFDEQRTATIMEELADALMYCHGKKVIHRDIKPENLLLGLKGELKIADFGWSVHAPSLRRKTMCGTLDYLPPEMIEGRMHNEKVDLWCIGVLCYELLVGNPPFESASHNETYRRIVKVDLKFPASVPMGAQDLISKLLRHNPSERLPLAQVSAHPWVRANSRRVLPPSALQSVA

Molecules are shown by their SMILES.

For orientation: inhibition means the drop in the measured response relative to a control, in per cent.

Tyrosine-protein kinase Fer (Homo sapiens), sequence (P16591 whole entry, looked up): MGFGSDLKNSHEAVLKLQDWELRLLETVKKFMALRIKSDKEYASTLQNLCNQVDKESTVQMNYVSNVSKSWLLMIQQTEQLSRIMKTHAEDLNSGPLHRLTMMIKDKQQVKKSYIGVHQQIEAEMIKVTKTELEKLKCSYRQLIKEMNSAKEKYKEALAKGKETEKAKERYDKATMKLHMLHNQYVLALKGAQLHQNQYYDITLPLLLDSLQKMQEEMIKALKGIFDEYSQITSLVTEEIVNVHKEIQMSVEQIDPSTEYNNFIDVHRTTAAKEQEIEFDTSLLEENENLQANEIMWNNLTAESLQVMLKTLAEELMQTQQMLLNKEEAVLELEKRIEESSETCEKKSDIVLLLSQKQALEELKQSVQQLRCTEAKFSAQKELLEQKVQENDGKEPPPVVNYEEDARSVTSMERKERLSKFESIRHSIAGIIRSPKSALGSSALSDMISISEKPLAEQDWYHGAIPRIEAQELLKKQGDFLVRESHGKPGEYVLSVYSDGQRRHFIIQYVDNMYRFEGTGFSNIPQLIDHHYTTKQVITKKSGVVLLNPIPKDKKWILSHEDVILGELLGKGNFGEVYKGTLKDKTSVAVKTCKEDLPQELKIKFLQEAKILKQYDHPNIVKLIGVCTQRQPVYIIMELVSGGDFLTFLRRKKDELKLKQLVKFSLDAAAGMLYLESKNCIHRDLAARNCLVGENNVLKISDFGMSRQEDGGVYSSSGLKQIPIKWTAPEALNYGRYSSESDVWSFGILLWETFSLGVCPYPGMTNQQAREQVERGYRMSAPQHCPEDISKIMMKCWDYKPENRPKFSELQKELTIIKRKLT
Dual specificity tyrosine-phosphorylation-regulated kinase 3 (Homo sapiens), sequence (O43781 whole entry): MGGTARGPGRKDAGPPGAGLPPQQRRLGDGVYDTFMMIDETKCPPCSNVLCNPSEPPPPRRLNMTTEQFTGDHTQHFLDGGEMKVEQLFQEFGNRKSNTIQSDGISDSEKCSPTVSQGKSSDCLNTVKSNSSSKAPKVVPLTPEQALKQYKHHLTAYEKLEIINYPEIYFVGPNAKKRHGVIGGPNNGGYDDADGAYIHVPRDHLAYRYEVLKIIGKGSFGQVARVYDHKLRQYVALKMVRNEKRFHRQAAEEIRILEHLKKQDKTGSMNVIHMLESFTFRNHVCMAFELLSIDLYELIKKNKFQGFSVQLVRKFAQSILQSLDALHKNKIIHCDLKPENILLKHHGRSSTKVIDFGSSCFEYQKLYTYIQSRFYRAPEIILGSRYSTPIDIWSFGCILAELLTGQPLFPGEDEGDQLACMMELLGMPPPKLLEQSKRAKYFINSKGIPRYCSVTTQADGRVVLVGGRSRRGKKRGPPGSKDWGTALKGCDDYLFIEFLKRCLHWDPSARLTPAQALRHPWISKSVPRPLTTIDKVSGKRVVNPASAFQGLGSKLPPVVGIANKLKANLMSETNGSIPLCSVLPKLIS
Glycogen synthase kinase-3 beta (Homo sapiens), sequence (P49841 whole entry, looked up): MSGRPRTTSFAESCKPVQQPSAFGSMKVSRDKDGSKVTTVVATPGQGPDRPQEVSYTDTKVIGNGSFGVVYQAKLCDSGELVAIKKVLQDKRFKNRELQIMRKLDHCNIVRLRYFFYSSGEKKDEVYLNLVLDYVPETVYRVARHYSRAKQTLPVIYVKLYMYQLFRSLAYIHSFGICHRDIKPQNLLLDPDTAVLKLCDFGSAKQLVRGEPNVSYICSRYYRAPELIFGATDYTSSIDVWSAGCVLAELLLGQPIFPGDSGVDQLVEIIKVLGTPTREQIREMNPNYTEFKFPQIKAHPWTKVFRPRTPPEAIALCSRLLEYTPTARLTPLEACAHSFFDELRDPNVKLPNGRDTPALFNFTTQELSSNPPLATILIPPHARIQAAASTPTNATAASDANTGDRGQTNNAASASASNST

`COC(=O)Nc1noc2cc(-c3c(-c4ccccn4)n[nH]c3C)ccc12`: the inhibition in [1] is 4.7%; in test [2] it was -3.3%; in test [3], -4.3%.

As for `Cc1[nH]nc(C2CC2)c1-c1ccc2c(NC(=O)C3CC3)noc2c1`, the inhibition in test [4] stood at 5%; in [5] it was 0.3%; in [6] it was 3%; in [7], 1.3%; in test [8], 1.3%; in test [9], 24.3%. Besides, the inhibition in test [10] is 9.3%; in [11], -2.3%; in test [12], 0.7%; in test [13], 8.7%; in [14], -4.3%; in [15], -1.7%. For the same compound, the inhibition is -2.3% in [16], 5% in test [17] and -1% in test [18].

`Cc1n[nH]c(C)c1-c1ccc2c(NC(=O)c3ccc(N4CCN(C)CC4)cc3)n[nH]c2c1`: the inhibition in test [19] is 18.7%; in test [20], 76%; in test [21], 26%; in test [22] it was 38%; in test [23], 2%; in test [24], 0.7%. Further, the inhibition in test [25] was 2.7%; in test [26], 13.3%; in test [27] it was -1%; in test [28], 1.3%; in test [29] it was 1.3%; in test [30], 35%. For the same compound, the inhibition in [31] was determined as 3%; in test [32], 4.3%; in test [33], 11.7%; in test [34], 21%; in [35], 2.3%; in [36] it was 9%. Also, the results for the inhibition in test [37], in [38] and in [39] were 82%, 5% and 11%, respectively.

These data come from ChEMBL document CHEMBL4052759, “Discovery of DS79182026: A potent orally active hepcidin production inhibitor” (Bioorg Med Chem Lett, 2017).
